Measurements: paper PMC2248166, “Quantitative peptide binding motifs for 19 human and mouse MHC class I molecules derived using positional scanning combinatorial peptide libraries” (Immunome Research, 2008)

Key:
Type in all cases: binding
HLA B*5801 = HLA B*5801 (Homo sapiens, UniProt P01889, A329T/C349S/D201E/D98Y/E176V/E187L/E204Q/E69T/G107R/I218V/I90N/K202T/L105A/L119I/N104I/N87E/Q89R/Q94S/R106L/R155S/R180L/R86G/S101N/S121R/S35A/S48A/T118I/V127L/V306I/V36M/Y140S/Y91M)
HLA A*3001 = HLA A*3001 (Homo sapiens, UniProt P04439, D140H/D185E/E176W/F33S/G80R/H175R/K168Q/R138E/R41S); test: biochemical
H-2 K^k = H-2 K^k (Mus musculus, UniProt P04223)
Chain of H-2 K^k (P01887 21-119): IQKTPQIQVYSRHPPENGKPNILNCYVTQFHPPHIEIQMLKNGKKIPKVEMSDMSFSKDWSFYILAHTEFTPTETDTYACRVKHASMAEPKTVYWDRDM
Chain of H-2 K^k (P04223 22-369): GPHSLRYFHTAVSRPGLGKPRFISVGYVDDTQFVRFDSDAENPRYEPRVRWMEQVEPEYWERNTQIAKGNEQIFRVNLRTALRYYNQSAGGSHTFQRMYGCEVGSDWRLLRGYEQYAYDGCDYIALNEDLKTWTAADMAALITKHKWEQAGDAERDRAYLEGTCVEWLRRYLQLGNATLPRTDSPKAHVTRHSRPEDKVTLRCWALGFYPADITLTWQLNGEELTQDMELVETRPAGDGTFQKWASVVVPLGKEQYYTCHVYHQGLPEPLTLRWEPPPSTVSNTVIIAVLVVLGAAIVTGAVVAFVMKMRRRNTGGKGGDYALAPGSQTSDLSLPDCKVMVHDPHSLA

H-2 K^d = H-2 K^d (Mus musculus, UniProt P01902)
Chain of H-2 K^d (P01887 21-119): as the sequence (P01887 21-119) above
Chain of H-2 K^d (P01902 22-368): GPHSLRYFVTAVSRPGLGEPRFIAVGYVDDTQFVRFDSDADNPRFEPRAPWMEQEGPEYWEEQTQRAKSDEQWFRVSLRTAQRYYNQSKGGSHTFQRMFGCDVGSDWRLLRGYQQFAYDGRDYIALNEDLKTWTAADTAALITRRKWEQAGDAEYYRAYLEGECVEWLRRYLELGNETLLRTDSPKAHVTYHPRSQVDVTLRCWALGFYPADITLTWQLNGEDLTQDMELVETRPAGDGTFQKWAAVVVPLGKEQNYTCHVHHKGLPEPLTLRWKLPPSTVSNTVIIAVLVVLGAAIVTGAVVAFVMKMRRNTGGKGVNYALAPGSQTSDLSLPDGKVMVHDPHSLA

HLA B*5401 = HLA B*5401 (Homo sapiens, UniProt P01889, A329T/C349S/D138N/D201E/E176V/E187T/E204Q/E69G/I76V/K202T/L119W/R155S/R180L/S121T/S35A/S48A/V127L/V306I/V36M/Y140L)
H-2 D^d = H-2 D^d (Mus musculus, UniProt P01900)
Chain of H-2 D^d (P01900 whole entry, looked up): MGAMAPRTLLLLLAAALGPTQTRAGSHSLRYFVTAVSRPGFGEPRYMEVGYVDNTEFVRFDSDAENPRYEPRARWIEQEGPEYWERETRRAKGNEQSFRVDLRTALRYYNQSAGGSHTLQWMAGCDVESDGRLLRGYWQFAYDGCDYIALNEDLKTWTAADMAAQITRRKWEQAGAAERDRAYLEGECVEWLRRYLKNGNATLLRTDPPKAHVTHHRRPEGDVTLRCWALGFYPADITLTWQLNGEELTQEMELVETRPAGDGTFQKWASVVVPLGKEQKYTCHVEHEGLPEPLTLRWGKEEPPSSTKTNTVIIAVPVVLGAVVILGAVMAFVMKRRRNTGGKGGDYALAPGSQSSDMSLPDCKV

HLA A*6802 = HLA A*6802 (Homo sapiens, UniProt P04439, A269V/D140Y/D185E/E176V/E277Q/E87N/F33Y/G231S/I121R/I166T/I218V/L180W/L300P/L318F/N151K/P208A/P217A/Q86R/R138H/R169H/S129P/T345S/V36M)
HLA A*3201 = HLA A*3201 (Homo sapiens, UniProt P04439, A270S/D101S/D185E/E176V/E277Q/F133L/G103R/G107R/G231S/H175R/I121M/I218V/I322F/K168Q/L105A/L300P/L318F/M331R/P208A/P217A/Q94H/R106L/R138Q/S129P/T104I/T323A/T345S/V100E/V321M/V358M); test: biochemical
HLA B*5802 = HLA B*5802 (Homo sapiens, UniProt P01889, A329T/C349S/D201E/D98Y/E176V/E187L/E204Q/E69T/G107R/I218V/I90N/K202T/L105A/N104I/N87E/Q89R/Q94S/R106L/R155S/R180L/R86G/S101N/S121W/S35A/S48A/V127L/V306I/V36M/Y140S/Y91M)
H-2 D^b = H-2 D^b (Mus musculus, UniProt P01899)
Chain of H-2 D^b (P01887 21-119): as the sequence (P01887 21-119) above
Chain of H-2 D^b (P01899 25-362): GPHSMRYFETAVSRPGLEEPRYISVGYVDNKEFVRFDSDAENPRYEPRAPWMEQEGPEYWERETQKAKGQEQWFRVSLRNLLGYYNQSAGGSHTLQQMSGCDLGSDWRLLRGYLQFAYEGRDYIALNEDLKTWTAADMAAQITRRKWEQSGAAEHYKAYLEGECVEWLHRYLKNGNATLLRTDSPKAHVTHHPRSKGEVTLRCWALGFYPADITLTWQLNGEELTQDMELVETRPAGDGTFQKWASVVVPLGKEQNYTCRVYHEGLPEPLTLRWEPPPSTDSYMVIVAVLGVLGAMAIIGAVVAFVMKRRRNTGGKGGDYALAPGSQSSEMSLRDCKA

HLA B*1501 = HLA B*1501 (Homo sapiens, UniProt P01889, A329T/A93T/A95T/C349S/D201E/D98Y/E187L/E204Q/E69M/E70A/K202T/N87E/Q94N/R155S/R180W/S121R/S35A/S48A/V306I/V36M/Y140S/Y91S); test: biochemical
HLA B*1503 = HLA B*1503 (Homo sapiens, UniProt P01889, A329T/A93T/A95T/C349S/D201E/D98Y/E187L/E204Q/K202T/N87E/Q94N/R155S/R180L/S121R/S35A/V306I/V36M/Y140S/Y91S); test: biochemical
HLA B*5101 = HLA B*5101 (Homo sapiens, UniProt P01889, A329T/A93T/A95T/C349S/D138N/D201E/D98Y/E187L/E204Q/E69T/G107R/I218V/K202T/L105A/L119W/N104I/Q94N/R106L/R155S/R180L/S101N/S121T/S35A/S48A/V306I/V36M/Y195H/Y91F)
HLA B*3501 = HLA B*3501 (Homo sapiens, UniProt P01889, A329T/A93T/A95T/C349S/D201E/D98Y/E176V/E187L/E204Q/E69T/I218V/K202T/L119I/Q94N/R155S/R180L/S121R/S35A/S48A/T118I/V127L/V306I/V36M/Y140S/Y91F)
HLA B*0801 = HLA B*0801 (Homo sapiens, UniProt P01889, A93T/A95T/D138N/E176V/E187T/K202T/Q94N/R180D/S35A/V36M/Y33D/Y91F); test: biochemical
HLA B*5301 = HLA B*5301 (Homo sapiens, UniProt P01889, A329T/A93T/A95T/C349S/D201E/D98Y/E176V/E187L/E204Q/E69T/G107R/I218V/K202T/L105A/L119I/N104I/Q94N/R106L/R155S/R180L/S101N/S121R/S35A/S48A/T118I/V127L/V306I/V36M/Y140S/Y91F)

| Sequence | Normalized average relative binding affinity(ARB) (HLA B*5801) | Normalized average relative binding affinity(ARB) (HLA A*3001) | Normalized average relative binding affinity(ARB) (H-2 K^k) | Normalized average relative binding affinity(ARB) (H-2 K^d) | Normalized average relative binding affinity(ARB) (HLA B*5401) | Normalized average relative binding affinity(ARB) (H-2 D^d) | Normalized average relative binding affinity(ARB) (HLA A*6802) | Normalized average relative binding affinity(ARB) (HLA A*3201) | Normalized average relative binding affinity(ARB) (HLA B*5802) | Normalized average relative binding affinity(ARB) (H-2 D^b) | Normalized average relative binding affinity(ARB) (HLA B*1501) | Normalized average relative binding affinity(ARB) (HLA B*1503) | Normalized average relative binding affinity(ARB) (HLA B*5101) | Normalized average relative binding affinity(ARB) (HLA B*3501) | Normalized average relative binding affinity(ARB) (HLA B*0801) | Normalized average relative binding affinity(ARB) (HLA B*5301) |
| --- | --- | --- | --- | --- | --- | --- | --- | --- | --- | --- | --- | --- | --- | --- | --- | --- |
| XXXXXXXPX [3064.0153] | 0.18 | 0.80 | 0.44 | 0.75 | 0.72 | 0.73 | 0.33 | 0.87 | 0.16 | 1.0 | 0.35 | 0.30 | 0.51 | 0.64 | 0.73 | 0.15 |
| XXXXXYXXX [3064.0120] | 1.0 | 0.21 | 0.35 | 0.26 | 0.19 | 0.83 | 0.43 | 0.38 | 0.64 | 0.68 | 0.20 | 0.40 | 0.097 | 0.061 | 0.0094 | 1.0 |
| XXXXXAXXX [3064.0101] | 0.28 | 0.34 | 0.83 | 0.26 | 0.20 | 0.51 | 0.82 | 0.83 | 0.91 | 0.62 | 0.30 | 0.45 | 0.43 | 0.21 | 0.011 | 0.65 |
| XXXXXXXLX [3064.0150] | 0.43 | 0.23 | 0.54 | 0.43 | 0.053 | 0.80 | 0.16 | 0.29 | 0.57 | 0.46 | 0.15 | 0.13 | 0.86 | 0.31 | 0.11 | 0.42 |
| XXXEXXXXX [3064.0064] | 0.21 | 0.34 | 0.41 | 0.18 | 0.15 | 0.38 | 0.14 | 0.36 | 0.18 | 0.35 | 0.27 | 0.25 | 0.46 | 0.087 | 0.24 | 0.24 |
| XXXXXXWXX [3064.0139] | 0.79 | 0.16 | 0.064 | 0.056 | 0.22 | 0.044 | 1.0 | 0.48 | 0.18 | 0.31 | 0.31 | 0.15 | 0.91 | 1.0 | 0.53 | 0.31 |
| XXXXXQXXX [3064.0114] | 0.57 | 0.21 | 0.12 | 0.19 | 0.11 | 0.51 | 0.085 | 0.15 | 0.46 | 0.55 | 0.21 | 0.53 | 0.39 | 0.12 | 0.031 | 0.13 |
| XXXXXKXXX [3064.0109] | 0.13 | 0.10 | 0.34 | 0.36 | 0.62 | 0.30 | 0.24 | 0.30 | 0.21 | 0.51 | 0.28 | 0.26 | 0.54 | 0.14 | 0.073 | 0.15 |
